One data set deals with T1, human 5HT1F receptor (Homo sapiens, UniProt P30939).
T1 construct: host or cells: LM(tk-) clonal cell line L-5-HT1F
T1 sequence (P30939 1-366): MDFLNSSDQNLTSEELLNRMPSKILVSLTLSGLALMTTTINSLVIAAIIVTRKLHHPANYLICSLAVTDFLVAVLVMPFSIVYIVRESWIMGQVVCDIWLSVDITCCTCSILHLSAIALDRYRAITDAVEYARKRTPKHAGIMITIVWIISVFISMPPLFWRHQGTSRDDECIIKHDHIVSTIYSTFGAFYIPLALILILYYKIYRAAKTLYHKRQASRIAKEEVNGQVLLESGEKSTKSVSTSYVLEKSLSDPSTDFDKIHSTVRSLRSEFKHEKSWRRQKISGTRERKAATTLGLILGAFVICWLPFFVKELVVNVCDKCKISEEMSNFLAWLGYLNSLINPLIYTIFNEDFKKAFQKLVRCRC
The data set can be described thus: [3H]serotonin competition binding, 5HT1F receptor. As for the experimental part: (§1) 5HT1Dα, 5HT1Dβ, 5HT1E, 5HT1F Receptors: The cell lysates of LM(tk−) clonal cell line stably transfected with the genes encoding each of these 5HT receptor-subtypes were prepared as described above. The cell line for the 5HT1Dα receptor, designated as Ltk-8-30-84, was deposited on Apr. […] The cell for the 5HT1Dβ receptor, designated as Ltk-11, was deposited on Apr. […] The cell line for the 5HT1E receptor, designated 5 HT1E-7, was deposited on Nov. […] The cell line for the 5HT1F receptor, designated L-5-HT1F, was deposited on Dec. […] These preparations were suspended in 50 mM Tris-HCl buffer (pH 7.4 at 37° C.) containing 10 mM MgCl2, 0.2 mM EDTA, 10 μM pargyline, and 0.1% ascorbate.

Another data set deals with T2, human D2 receptor (Homo sapiens, UniProt P14416).
T2 construct: host or cells: COS-7, transient, DEAE-dextran
The data set can be described thus: [3H]spiperone binding, dopamine D2 receptor. The method, then:
The potency of α1 antagonists at the D2 receptor was determined using membrane preparations from COS-7 cells transfected with the gene encoding the human D2 receptor. The coding region for the human D2 receptor was obtained from a human striatum cDNA library, and cloned into the cloning site of PCDNA 1 eukariotic expression vector. The plasmid DNA for the D2 receptor is designated pcEXV-D2, and was deposited on Nov. […] This construct was transfected into COS-7 cells by the DEAE-dextran method. […] The cell lysates were incubated with [3H]spiperone (2 nM), using 10 μM (+)Butaclamol to determine nonspecific binding.

For another data set, the target named is T3, human 5HT1Dβ receptor (Homo sapiens, UniProt P28222).
T3 construct: host or cells: LM(tk-) clonal cell line Ltk-11
The data set can be described thus: [3H]serotonin competition binding, 5HT1Dβ receptor. As for the experimental part: as §1

Another data set deals with T4, human 5HT2 receptor (Homo sapiens, UniProt P28223).
T4 construct: host or cells: COS-7 (DEAE-dextran); the same paragraph also names a deposited line L-NGC-5HT2
Nature of the data set: [3H]ketanserin competition binding, 5HT2 receptor. The method, then:
The coding sequence of the human 5HT2 receptor was obtained from a human brain cortex cDNA library, and cloned into the cloning site of pCEXV-3 eukaryotic expression vector. This construct was transfected into COS-7 cells by the DEAE-dextran method. […] Nonspecific binding was defined by the addition of 10 μM mianserin.

A further data set concerns the target T5, human 5HT1Dα receptor (Homo sapiens, UniProt P28221).
T5 construct: host or cells: LM(tk-) clonal cell line Ltk-8-30-84
The data set can be described thus: [3H]serotonin competition binding, 5HT1Dα receptor. As for the experimental part:
as §1

In data set [1] the target is T6, human histamine H1 receptor (Homo sapiens, UniProt P35367).
T6 construct: host or cells: COS-7, transient, DEAE-dextran
The data set can be described thus: [3H]mepyramine binding, histamine H1 receptor. The text has this:
The coding sequence of the human histamine H1 receptor, homologous to the bovine H1 receptor, was obtained from a human hippocampal cDNA library, and was cloned into the eukaryotic expression vector pCEXV-3. The plasmid DNA for the H1 receptor is designated pcEXV-H1, and was deposited on Nov. […] This construct was transfected into COS-7 cells by the DEAE-dextran method.

In another data set the target is T7, human 5HT1E receptor (Homo sapiens, UniProt P28566).
T7 construct: host or cells: LM(tk-) clonal cell line 5HT1E-7
Nature of the data set: [3H]serotonin competition binding, 5HT1E receptor. As for the experimental part:
as §1

For another data set, the system named is human prostate tissue. Nature of the data set: Antagonism of phenylephrine-induced contraction of human prostatic tissue. The note with it: pA2, phenylephrine-induced contraction, dose-ratio method.
Data set [2] deals with T8, human histamine H2 receptor (Homo sapiens, UniProt P25021).
T8 construct: host or cells: COS-7, transient, DEAE-dextran
Nature of the data set: [3H]tiotidine binding, histamine H2 receptor. The note with it: Table 2, cloned human receptor; read-out: Histamine H2 (pK1) (converted). The source says: The coding sequence of the human H2 receptor was obtained from a human placenta genomic library, and cloned into the cloning site of PCEXV-3 eukaryotic expression vector. The plasmid DNA for the H2 receptor is designated pcEXV-H2, and was deposited on Nov. […] This construct was transfected into COS-7 cells by the DEAE-dextran method.

Data set [3] deals with Sprague-Dawley normotensive rats. Nature of the data set: Rat orthostatic hypotension model. Type of data set: in vivo. The note with it: for BP fall / orthostatic fall in BP: i.v.; for orthostatic fall in BP: second tilt. The method, then:
Adult male Sprague-Dawley normotensive rats were anesthetized with sodium pentobarbital (45 mg/kg, i.v.). The femoral vein and artery of the right hindlimb were cannulated for drug administration and blood pressure monitoring, respectively. Heart rate was determined by a cardiotachometer triggered by the blood pressure pulse. The rats were secured in the supine position to a board that could be tilted 90 degrees. When blood pressure and heart rate had stabilized, the rats were subjected to a 90 degree vertical (head up) tilt for 60 seconds. Changes in blood pressure and heart rate from pre-tilt levels were monitored continuously. The rats were returned to the supine position and blood pressure and heart rate were allowed to stabilize. […] When blood pressure had stabilized, the rats were subjected to a second tilt and blood pressure and heart rate were recorded as described above. […] Data from the second tilt are used in statistical analysis.

Another data set has as its target T9, calcium channels (Rattus norvegicus, UniProt P22002).
T9 construct: from tissue; host or cells: rat cardiac muscle membranes
Nature of the data set: [3H]nitrendipine competition binding, calcium channels, rat cardiac muscle membranes. The note with it: Table 2, rat cardiac muscle membranes; read-out: Calcium Channel (pK1) (converted). As for the experimental part: Briefly, the tissue was minced and homogenized in 50 mM Tris-HCl (pH 7.4) containing 0.1 mM phenylmethylsulfonyl fluoride. The homogenates were centrifuged at 1000 g for 15 minutes, the resulting supernatant was centrifuged at 45,000 g for 15 minutes. The 45,000 g pellet was suspended in buffer and centrifuged a second time.

For the next data set, the system named is 5-α-reductase. The note with it: BPH patients; cited from earlier work.

Counter-ions that a name gives are not always drawn. Like-named read-outs stand apart in the source and are kept apart here. Bounds are passed on as bounds.

One may read the melting point as the temperature of the solid-liquid transition.

T2 sequence (P14416 whole entry): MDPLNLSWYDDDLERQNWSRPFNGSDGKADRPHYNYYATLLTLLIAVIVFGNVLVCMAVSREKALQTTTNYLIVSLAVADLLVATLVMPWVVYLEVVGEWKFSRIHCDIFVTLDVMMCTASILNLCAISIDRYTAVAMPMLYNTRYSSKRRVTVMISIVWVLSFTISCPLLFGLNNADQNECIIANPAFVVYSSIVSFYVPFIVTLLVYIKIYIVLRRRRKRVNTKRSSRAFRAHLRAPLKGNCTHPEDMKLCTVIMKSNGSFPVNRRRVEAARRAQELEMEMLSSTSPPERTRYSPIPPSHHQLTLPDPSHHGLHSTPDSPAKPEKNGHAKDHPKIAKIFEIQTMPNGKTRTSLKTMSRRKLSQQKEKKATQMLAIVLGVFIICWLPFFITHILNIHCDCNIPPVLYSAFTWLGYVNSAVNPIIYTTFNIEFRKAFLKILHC
T8 sequence (P25021 whole entry): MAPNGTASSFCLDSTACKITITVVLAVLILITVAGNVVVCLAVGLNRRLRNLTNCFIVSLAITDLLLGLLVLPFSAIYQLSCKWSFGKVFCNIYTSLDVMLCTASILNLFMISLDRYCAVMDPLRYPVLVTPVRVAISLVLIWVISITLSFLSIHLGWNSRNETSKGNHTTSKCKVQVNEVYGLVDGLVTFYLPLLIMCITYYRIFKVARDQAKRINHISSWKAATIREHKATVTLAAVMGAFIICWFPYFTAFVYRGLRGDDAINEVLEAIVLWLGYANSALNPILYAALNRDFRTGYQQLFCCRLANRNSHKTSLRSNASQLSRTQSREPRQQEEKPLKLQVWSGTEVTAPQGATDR
T5 sequence (P28221 whole entry): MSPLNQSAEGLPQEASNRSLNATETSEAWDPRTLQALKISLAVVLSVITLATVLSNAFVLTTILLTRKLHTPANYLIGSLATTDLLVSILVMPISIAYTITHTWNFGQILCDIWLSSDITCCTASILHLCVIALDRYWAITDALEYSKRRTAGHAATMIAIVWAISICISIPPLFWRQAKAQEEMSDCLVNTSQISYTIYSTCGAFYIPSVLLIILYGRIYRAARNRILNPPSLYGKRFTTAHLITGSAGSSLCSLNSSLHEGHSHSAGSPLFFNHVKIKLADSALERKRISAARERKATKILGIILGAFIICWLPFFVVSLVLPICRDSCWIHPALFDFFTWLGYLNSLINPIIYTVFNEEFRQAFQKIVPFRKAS
T7 sequence (P28566 whole entry): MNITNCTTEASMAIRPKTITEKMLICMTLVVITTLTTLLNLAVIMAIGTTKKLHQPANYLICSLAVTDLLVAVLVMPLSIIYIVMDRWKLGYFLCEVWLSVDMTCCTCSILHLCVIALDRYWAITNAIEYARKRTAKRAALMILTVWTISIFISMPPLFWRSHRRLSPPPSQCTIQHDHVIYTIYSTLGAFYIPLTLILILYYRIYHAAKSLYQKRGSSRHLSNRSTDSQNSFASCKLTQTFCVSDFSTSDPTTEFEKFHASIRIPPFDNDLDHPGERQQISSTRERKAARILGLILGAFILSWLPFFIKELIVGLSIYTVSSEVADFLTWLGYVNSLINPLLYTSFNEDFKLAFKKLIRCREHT
T3 sequence (P28222 whole entry): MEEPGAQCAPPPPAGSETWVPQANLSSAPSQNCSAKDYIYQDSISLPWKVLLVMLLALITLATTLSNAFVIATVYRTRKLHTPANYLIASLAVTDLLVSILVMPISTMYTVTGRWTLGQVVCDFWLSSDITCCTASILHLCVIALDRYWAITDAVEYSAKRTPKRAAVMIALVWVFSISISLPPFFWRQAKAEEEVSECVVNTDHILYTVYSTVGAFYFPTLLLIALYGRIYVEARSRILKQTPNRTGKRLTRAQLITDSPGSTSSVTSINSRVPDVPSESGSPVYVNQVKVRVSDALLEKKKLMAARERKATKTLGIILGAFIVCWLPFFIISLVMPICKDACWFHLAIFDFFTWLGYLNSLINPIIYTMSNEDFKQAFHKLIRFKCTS
T6 sequence (P35367 whole entry): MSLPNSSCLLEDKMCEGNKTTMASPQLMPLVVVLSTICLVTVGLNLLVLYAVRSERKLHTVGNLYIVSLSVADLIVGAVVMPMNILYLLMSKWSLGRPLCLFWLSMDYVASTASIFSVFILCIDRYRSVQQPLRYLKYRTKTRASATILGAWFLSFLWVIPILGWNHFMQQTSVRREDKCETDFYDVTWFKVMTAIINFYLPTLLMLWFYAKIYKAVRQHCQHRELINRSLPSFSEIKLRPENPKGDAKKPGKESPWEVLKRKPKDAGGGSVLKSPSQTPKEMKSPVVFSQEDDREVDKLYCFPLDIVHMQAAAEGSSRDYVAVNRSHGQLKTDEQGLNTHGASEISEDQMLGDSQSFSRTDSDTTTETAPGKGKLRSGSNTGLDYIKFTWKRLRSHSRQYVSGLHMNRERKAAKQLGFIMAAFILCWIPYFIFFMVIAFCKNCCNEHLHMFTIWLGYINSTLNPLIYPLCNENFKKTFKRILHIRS
T4 sequence (P28223 whole entry): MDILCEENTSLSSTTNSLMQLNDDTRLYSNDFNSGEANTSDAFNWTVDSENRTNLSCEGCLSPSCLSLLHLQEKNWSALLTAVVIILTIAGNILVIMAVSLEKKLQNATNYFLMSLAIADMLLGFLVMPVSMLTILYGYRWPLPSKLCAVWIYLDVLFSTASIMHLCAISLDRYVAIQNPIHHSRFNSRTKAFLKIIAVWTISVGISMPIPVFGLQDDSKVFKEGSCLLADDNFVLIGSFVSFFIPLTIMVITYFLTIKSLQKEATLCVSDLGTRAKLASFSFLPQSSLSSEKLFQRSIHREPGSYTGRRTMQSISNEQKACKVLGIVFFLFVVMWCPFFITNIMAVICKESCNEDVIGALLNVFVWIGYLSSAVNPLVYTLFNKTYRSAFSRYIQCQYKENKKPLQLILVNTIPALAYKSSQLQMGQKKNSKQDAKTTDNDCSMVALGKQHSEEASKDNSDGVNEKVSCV
Protocol for human prostate tissue: An index of this efficacy can be obtained by determining the potency of α1 antagonists to antagonize the contraction of human prostatic tissue induced by an α1 agonist “in vitro”.
Prostatic adenomas were obtained at the time of surgery from patients with symptomatic BPH. […] Isometric tension was measured with a Grass Instrument FT03 force transducer interfaced with a computer. Tissue strips were contracted with varying concentrations of phenylephrine after incubating for 20 minutes in the absence and presence of at least three different concentrations of antagonist. Dose-response curves for phenylephrine were constructed, and the antagonist potency (pA2) was estimated by the dose-ratio method.

`O=C(CCCN1CCC(NC(=O)c2ccccc2)CC1)c1ccc(Cl)cc1` (as salt: HCl) [Example 4, 1-[3-(4-chlorobenzoyl)propyl]-4-benzamidopiperidine] gave a melting point of 243 to 244 °C.

Take `COC(=O)C1=C(C)NC(C)=C(C(=O)NCCCN2CCC(c3ccccc3)(c3ccccc3)CC2)C1c1ccc([N+](=O)[O-])cc1.Cl.O` (stereo not drawn) [Compound 2, 2,6-Dimethyl-4-(4-nitrophenyl)-1,4-dihydropyridine-3,5-dicarboxylic acid N-[3-(4,4-diphenylpiperidin-1-yl)-propyl]amide methyl ester hydrochloride hydrate]: the Ki is greater than 10 µM at human 5HT1F receptor; greater than 0.1 µM at human D2 receptor; greater than 1 µM on human 5HT1Dβ receptor; greater than 1 µM at human 5HT2 receptor; greater than 0.1 µM at human 5HT1Dα receptor; 0.0692 µM in data set [1]. The Ki on human 5HT1E receptor was greater than 10 µM; in data set [2] it was 0.0331 µM. In addition, the “Human Prostate (pA)” value in the data set with human prostate tissue is 8.94.

In the case of `COc1cc2nc(N3CCN(C(=O)c4ccco4)CC3)nc(N)c2cc1OC` [Prazosin], the BP fall result in [3] (Dose 1, 10 ug/kg) is recorded as “+”; in data set [3] (Dose 2, 100 ug/kg), “++”; in [3] (Dose 3, 1000 ug/kg) it was “+++”. Further, the “orthostatic fall in BP” value was “+” in data set [3] (Dose 1, 10 ug/kg); “++ or +++” in data set [3] (Dose 2, 100 ug/kg); “++ or +++” in [3] (Dose 3, 1000 ug/kg). Further, the “orthostasis (Table 3)” value in data set [3] (doses 10, 100, 1000 ug/kg) is on record as “consistently cause orthostasis at the lowest dose”. For the same compound, the Ki on calcium channels was 26.9 µM. Besides, the “Human Prostate (pA)” value with human prostate tissue is 9.08.

Turning to `CC(C)(C)NC(=O)[C@H]1CC[C@H]2[C@@H]3CC[C@H]4NC(=O)C=C[C@]4(C)[C@H]3CC[C@]12C` [Proscar], in the data set with 5-α-reductase, the “patients in whom effective” value was 30% and the “period required to show results” value is “up to 6 months”.

For `COc1cc2nc(N3CCN(C(=O)C4CCCO4)CC3)nc(N)c2cc1OC` (stereo not drawn) [Terazosin, 2 [4-(Tetrahydro-2-furoyl)piperazinyl]-4-amino-6,7-dimethoxyquinazoline hydrochloride, reference compound], the Ki on human D2 receptor (Table 2, cloned human receptor, read-out: Dopamine D2 (pK1)) was greater than 10 µM; in data set [2], 9.12 µM. For the same compound, the “Human Prostate (pA)” value in the data set with human prostate tissue stood at 7.30.

Values taken from patent publication US6602888B2, “Use of α1C specific compounds to treat benign prostatic hyperplasia” (Synaptic Pharmaceutical Corporation, priority 1992, dated 2003).
